{"source": "patent US6204283A", "about": "“Parasitic mite control on beneficial insects” (American Cyanamid Company, priority 1999, dated 2001)", "assay_type_in_all_cases": "in vivo", "key": {"[1]": {"tested_on": "Varroa jacobsoni (Varroa mites)", "experiment": "Efficacy against Varroa jacobsoni parasites on infested honeybees, topical application (mite mortality)", "settings": "120 h, topical 1 μl acetone solution, 5 days, 31° C.", "description": "(§1) Evaluation Of The Efficacy Of Test Compound Against Varroa jacobsoni Parasites\n(§2) In this evaluation, honeybees (Apis mellifera) taken from hives which are 70-90% infested with Varroa jacobsoni (Varroa mites) are chilled to immobilize the bees. A 1 μl droplet of an acetone solution of tebufenpyrad is applied to the dorsal abdomen of each bee. Control bees receive 1 μl droplet of acetone. A total of 50-52 bees are treated for each dose rate tested. Treatment dose rates are based upon the LD50 (dose rate required to obtain 50% mortality of healthy uninfected bees) of tebufenypyrad and are set at 10% of the LD50 and subsequent 10-fold dilution thereof. The treated bees are placed in an incubator at 31° C. in the dark and fed 50% sugar water ad libitum for 5 days. After incubation, the bees are examined for mortality and mite infestation. The results are shown in Table I below, as % mortality of the total of the bees and the total of the mites."}, "[2]": {"tested_on": "honeybees (Apis mellifera)", "experiment": "Mortality of the Varroa-infested honeybees, topical application", "settings": "120 h, topical 1 μl acetone solution, 5 days, 31° C., read-out: % Mortality, Bees", "description": "as §1, §2"}, "[3]": {"tested_on": "Acarapis woodi (trachea mites)", "experiment": "Efficacy against Acarapis woodi parasites on treated glass slides", "settings": "slides dipped in 500 ppm acetone solution", "description": "Evaluation Of The Efficacy Of Test Compound Against Acarapis woodi Parasites\nIn this evaluation, honeybees (Apis mellifera) which are infested with Acarapis woodi (trachea mites) are dissected to remove the infested tracheae. Glass microscope slides are dipped into acetone solutions of tebufenpyrad (500 ppm)and the acetone is allowed to evaporate. Infested tracheae are placed directly on the treated slides. The mites are removed from the tracheae by dissection and forced to walk across the treated area. The elapsed time is recorded for 100% mortality, i.e. no movement is observed upon agitation."}, "[4]": {"tested_on": "Varroa jacobsoni", "experiment": "Field evaluation against Varroa jacobsoni parasites in infested beehives (stickyboard count)", "settings": "two strips containing 18% tebufenpyrad in 60:40 beeswax:lard, 24 hours after treatment", "description": "Field Evaluation Of The Efficiacy Of Test Compound Against Varroa jacobsoni Parasites\nIn this evaluation, two Varroa jacobsoni infested beehives are monitored for the extent of infestation using stickyboards inserted at the bottom of the hive. Data are presented as the number of mites trapped on the stickyboard per day. Two strips (2.5×17 cm) containing 18% tebufenpyrad dissolved in a 60:40 beeswax:lard (Crisco®) mixture are inserted into each hive brood chamber as per standard practice. One day after treatment, the stickyboards are removed and the dead mites counted."}}}
{"compound": "CCc1nn(C)c(C(=O)NCc2ccc(C(C)(C)C)cc2)c1Cl", "note": "[Tebufenpyrad, N-(4-t-butylbenzyl)-4-chloro-3-ethyl-1-methylpyrazole-5-carboxamide]", "values": [{"measurement": "mortality at 0.006 µg/bee", "setting": "[1]; 0.006 μg/bee", "result": 58, "unit": "%"}, {"measurement": "mortality at 0.06 µg/bee", "setting": "[1]; 0.06 μg/bee", "result": 44, "unit": "%"}, {"measurement": "mortality at 0.6 µg/bee", "setting": "[1]; 0.6 μg/bee", "result": 92, "unit": "%"}, {"measurement": "mortality at 0.006 µg/bee", "setting": "[2]; 0.006 μg/bee", "result": 24, "unit": "%"}, {"measurement": "mortality at 0.06 µg/bee", "setting": "[2]; 0.06 μg/bee", "result": 25, "unit": "%"}, {"measurement": "mortality at 0.6 µg/bee", "setting": "[2]; 0.6 μg/bee", "result": 28, "unit": "%"}, {"measurement": "Time required to achieve 100% mortality", "setting": "[3]; Rep. 1, 7 mites", "result": 8.5, "unit": "min"}, {"measurement": "Time required to achieve 100% mortality", "setting": "[3]; Rep. 2, 10 mites", "result": 8, "unit": "min"}, {"measurement": "Time required to achieve 100% mortality", "setting": "[3]; Rep. 3, 7 mites", "result": 8, "unit": "min"}, {"measurement": "Treatment mites/day (dead mites trapped on stickyboard)", "setting": "[4]; Hive 1, pretreatment 101 mites/day", "result": 1777, "unit": "mites/day"}, {"measurement": "Treatment mites/day (dead mites trapped on stickyboard)", "setting": "[4]; Hive 2, pretreatment 66 mites/day", "result": 1080, "unit": "mites/day"}]}
